Assay results reported in ChEMBL document CHEMBL1201862, “PubChem BioAssay data set” (2004).
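Briefly, cells in 96-well plates were exposed to five compound concentrations for 48 h, and endpoints were estimated by linear interpolation. GI50 is the concentration that inhibits growth by half.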 The source made the active and inactive calls. No stated cut-off is given here; in the data, active = GI50 up to about 1.1 µM and inactive = higher. Peptide text beside a SMILES is read from it. * marks the point of attachment. Cbz = O=C(OCc1ccccc1)*; CH2Cl = ClC*

Assays:
Experiment in all cases: NCI tumour cell line growth inhibition, 48 h
[1] = test system: SR
[2] = test system: NCI-H460
[3] = test system: SF-539
[4] = test system: SNB-75
[5] = test system: SN12C
[6] = test system: SK-OV-3
[7] = test system: HOP-92
[8] = test system: ACHN
[9] = test system: MDA-MB-231
[10] = test system: HCT-15
[11] = test system: MOLT-4
[12] = test system: MCF7
[13] = test system: CAKI-1
[14] = test system: KM12
[15] = test system: HT-29
[16] = test system: Malme-3M
[17] = test system: U-251
[18] = test system: HL-60
[19] = test system: UACC-257
[20] = test system: Hs-578T

Row | Structure (SMILES) | GI50 [1] | GI50 [2] | GI50 [3] | GI50 [4] | GI50 [5] | GI50 [6] | GI50 [7] | GI50 [8] | GI50 [9] | GI50 [10] | GI50 [11] | GI50 [12] | GI50 [13] | GI50 [14] | GI50 [15] | GI50 [16] | GI50 [17] | GI50 [18] | GI50 [19] | GI50 [20]
1 | O=C1NCC2(CCN(Cc3ccccc3)CC2)N1 | > 100 µM (inactive) | > 100 µM (inactive) | > 100 µM (inactive) | > 100 µM (inactive) | > 100 µM (inactive) | > 100 µM (inactive) | > 100 µM (inactive) | > 100 µM (inactive) | > 100 µM (inactive) | > 100 µM | > 100 µM (inactive) | > 100 µM (inactive) | > 100 µM (inactive) | > 100 µM (inactive) | > 100 µM (inactive) | > 100 µM (inactive) | > 100 µM (inactive) | > 100 µM (inactive) | > 100 µM (inactive) | > 100 µM (inactive)
2 | O=C(Sc1c(-c2ccccc2)c(=O)n(-c2ccccc2)c(=S)n1-c1ccccc1)c1ccc(Cl)cc1 | > 100 µM (inactive) | > 100 µM (inactive) | > 100 µM (inactive) | > 100 µM (inactive) | > 100 µM (inactive) | > 100 µM (inactive) | 55.6 µM (inactive) | > 100 µM (inactive) | 55.8 µM (inactive) | > 100 µM | 49.3 µM (inactive) | 74.3 µM (inactive) | > 100 µM (inactive) | > 100 µM (inactive) | > 100 µM (inactive) | > 100 µM (inactive) | > 100 µM (inactive) | > 100 µM (inactive) | > 100 µM (inactive) | > 100 µM (inactive)
3 | C=CCN1C(=O)/C(=C/c2ccco2)N=C1SC/C=C/C | 21.6 µM (inactive) | 57.9 µM (inactive) | > 100 µM (inactive) | 33.8 µM (inactive) | 23.5 µM (inactive) | > 100 µM (inactive) | 21.6 µM (inactive) | 35.4 µM (inactive) | 67.9 µM (inactive) | 35.7 µM | 19.5 µM (inactive) | 18.6 µM (inactive) | 90.8 µM (inactive) | 39.6 µM (inactive) | 40.4 µM (inactive) | 44.4 µM (inactive) | 49.2 µM (inactive) | 28.2 µM (inactive) | 48.5 µM (inactive) | 53.8 µM (inactive)
4 | COc1cc(/C=C/C=C2\CC/C(=C\C=C\c3ccc(O)c(OC)c3)C2=O)ccc1O | 2.53 µM (inactive) | > 100 µM (inactive) | > 100 µM (inactive) | > 100 µM (inactive) | > 100 µM (inactive) | > 22.2 µM (inactive) | > 100 µM (inactive) | > 100 µM (inactive) | > 59.7 µM (inactive) | > 100 µM | 1.02 µM (active) | > 100 µM (inactive) | > 100 µM (inactive) | > 100 µM (inactive) | > 100 µM (inactive) | > 85.7 µM (inactive) | > 100 µM (inactive) | 7.41 µM (inactive) | > 100 µM (inactive) | > 100 µM (inactive)
5 | O=C1/C(=C/c2cccc(Br)c2)CCc2ccccc21 | 4.1 µM (inactive) | 15.2 µM (inactive) | 17.5 µM (inactive) | 14.5 µM (inactive) | 15.4 µM (inactive) | 22.8 µM (inactive) | 14.7 µM (inactive) | 14.2 µM (inactive) | 20.4 µM (inactive) | 11.5 µM | 10.2 µM (inactive) | 3.75 µM (inactive) | 16 µM (inactive) | 4.02 µM (inactive) | 10.9 µM (inactive) | 12.4 µM (inactive) | 14.6 µM (inactive) | 5.68 µM (inactive) | 14.8 µM (inactive) | 6.05 µM (inactive)
6 | COC(=O)CNC(=O)CCC(C)[C@H]1CCC2C3C(C[C@H](OC(C)=O)[C@@]21C)[C@@]1(C)CCC2(C[C@H]1C[C@H]3OC(C)=O)OOC1(CC[C@]3(C)C4C[C@H](OC(C)=O)[C@@]5(C)C(CC[C@@H]5C(C)CCC(=O)NCC(=O)OC)C4[C@H](OC(C)=O)C[C@@H]3C1)OO2 (stereo not given in full) | 0.381 µM (active) | 2.07 µM (inactive) | 0.959 µM (active) | 1.64 µM (inactive) | 0.802 µM (active) | 5.37 µM (inactive) | 0.942 µM (active) | 0.838 µM (active) | 1.31 µM (inactive) | 1.33 µM | 0.163 µM (active) | 2.71 µM (inactive) | 2.15 µM (inactive) | 3.98 µM (inactive) | 1.01 µM (active) | 0.782 µM (active) | 3.78 µM (inactive) | 1.11 µM (active) | 1.14 µM (inactive) | 0.938 µM (active)
7 | CC(C)CC(NC(=O)OCc1ccccc1)C(=O)NC(Cc1ccccc1)C(=O)CCl (stereo not drawn) (Cbz-Leu-Phe-CH2Cl; configuration not given here) | 0.501 µM (active) | 6.5 µM (inactive) | 3.32 µM (inactive) | 4.78 µM (inactive) | 1.77 µM (inactive) | 11.4 µM (inactive) | 1.89 µM (inactive) | 4.25 µM (inactive) | 1.69 µM (inactive) | 1.66 µM | 0.664 µM (active) | 2.55 µM (inactive) | 5.14 µM (inactive) | 9.77 µM (inactive) | 2.68 µM (inactive) | 1.92 µM (inactive) | 8.38 µM (inactive) | 1.33 µM (inactive) | 4 µM (inactive) | 4.62 µM (inactive)
